Data from US6642217B2, “Triterpenes having human antifungal and antiyeast activity” (Naturtek, LLC, priority 2000, dated 2003).

Tests used:
[1] = test system: Epidermophyton floccosum; test: Agar dilution method, growth on Sabouraud dextrose agar slants; type: cell-based; set-up: key to Fungal growth: +++: Maximum Fungal Growth; ++: Moderate Fungal Growth; +: Minimum Fungal Growth; +/−: Very little Fungal Growth; −: No Fungal Growth; conditions: 12th day after inoculation
Procedure: (§1) Agar dilution method. Sabouraud Dextrose Agar (Difco Laboratories, Michigan) was prepared according to the manufacturer's instructions. Five ml was dispensed in a 100×25 mm tube and autoclaved. To each tube containing 5.0 ml of liquid agar at 45° C., 0.5, 0.25, 0.12, or 0.063 ml of a DMSO solution of the compound was added to give the final indicated concentrations in Table 2. The agar was then solidified in slants. Fungal cultures were inoculated. The slants were incubated at 25-28° C. for 10-12 days, and the growth of the fungus was recorded every second day.

[2] = test system: Trichophyton tonsuran; test: as above; type: cell-based, Trichophyton tonsurans; set-up: key: +++: Maximum Fungal Growth; ++: Moderate Fungal Growth; +: Minimum Fungal Growth; +/−: Very little Fungal Growth; −: No Fungal Growth; conditions: 12th day after inoculation
Procedure: as §1

[3] = test system: Microsporum gypseum; test: as above; type: cell-based; set-up: key: +++: Maximum Fungal Growth; ++: Moderate Fungal Growth; +: Minimum Fungal Growth; +/−: Very little Fungal Growth; −: No Fungal Growth; conditions: 12th day after inoculation
Procedure: as §1

[4] = test system: Microsporum canis; test: as above; type: cell-based; set-up: key: +++: Maximum Fungal Growth; ++: Moderate Fungal Growth; +: Minimum Fungal Growth; +/−: Very little Fungal Growth; −: No Fungal Growth; conditions: 12th day after inoculation
Procedure: as §1

[5] = test system: Pityrosporum ovale; test: as above; type: cell-based; set-up: key: +++: Maximum Fungal Growth; ++: Moderate Fungal Growth; +: Minimum Fungal Growth; +/−: Very little Fungal Growth; −: No Fungal Growth; conditions: 12th day after inoculation
Procedure: as §1

[6] = test system: Trichophyton rubrum; test: as above; type: cell-based; set-up: key: +++: Maximum Fungal Growth; ++: Moderate Fungal Growth; +: Minimum Fungal Growth; +/−: Very little Fungal Growth; −: No Fungal Growth; conditions: 12th day after inoculation
Procedure: as §1

[7] = test system: Microsporum audouinni; test: as above; type: cell-based, Microsporum audouinii; set-up: key: +++: Maximum Fungal Growth; ++: Moderate Fungal Growth; +: Minimum Fungal Growth; +/−: Very little Fungal Growth; −: No Fungal Growth; conditions: 12th day after inoculation
Procedure: as §1

[8] = test system: Trichophyton mentagrophyte; test: as above; type: cell-based, Trichophyton mentagrophytes; set-up: key to Fungal growth: +++: Maximum Fungal Growth; ++: Moderate Fungal Growth; +: Minimum Fungal Growth; +/−: Very little Fungal Growth; −: No Fungal Growth; conditions: for Fungal growth: 12th day after inoculation
Procedure: as §1

[9] = test system: Microsporum canis; test: Direct addition method, solid compound in Sabouraud dextrose agar; type: cell-based; set-up: key: +++: Maximum Fungal Growth; ++: Moderate Fungal Growth; +: Minimum Fungal Growth; +/−: Very little Fungal Growth; −: No Fungal Growth; conditions: 4 mg/mL of agar; 12th day after inoculation
Procedure: (§2) Direct addition method. Sabouraud dextrose agar was prepared according to the manufacturer's instructions and 5.0 ml was dispensed in each 100×25 mm tube. The tubes were autoclaved. To each tube containing 5.0 ml of liquid agar at 45° C., 20 mg of solid test compound was added, to give a final concentration of 4 mg/ml. The agar was solidified in slants. The fungal cultures were then innoculated. The slants were incubated at 25-28 ° C. for 10-12 days, and the growth of the fungus was recorded every second day. The results in Table 2 indicate growth at the 12th day of inoculation.

[10] = test system: Epidermophyton floccosum; test: as above; type: cell-based; set-up: key: +++: Maximum Fungal Growth; ++: Moderate Fungal Growth; +: Minimum Fungal Growth; +/−: Very little Fungal Growth; −: No Fungal Growth; conditions: 4 mg/mL of agar; 12th day after inoculation
Procedure: as §2

[11] = test system: Pityrosporum ovale; test: as above; type: cell-based; set-up: key: +++: Maximum Fungal Growth; ++: Moderate Fungal Growth; +: Minimum Fungal Growth; +/−: Very little Fungal Growth; −: No Fungal Growth; conditions: 4 mg/mL of agar; 12th day after inoculation
Procedure: as §2

[12] = test system: Trichophyton rubrum; test: as above; type: cell-based; set-up: key: +++: Maximum Fungal Growth; ++: Moderate Fungal Growth; +: Minimum Fungal Growth; +/−: Very little Fungal Growth; −: No Fungal Growth; conditions: 4 mg/mL of agar; 12th day after inoculation
Procedure: as §2

[13] = test system: Pityrosporum ovale; test: Direct addition into the Pityrosporum agar; type: cell-based; set-up: key to Pityrosporum ovale growth: +++: Maximum Growth; ++: Moderate Growth; +: Minimum Growth; +/−: Very Little Growth; −: No Growth; conditions: for Pityrosporum ovale growth: 4 mg/ml in the agar, 18 hours after inoculation
Procedure: Direct addition method. Sabouraud dextrose agar was prepared according to the manufacturer's instructions and 5.0 ml was dispensed in each 100×25 mm tube. The tubes were autoclaved. To each tube containing 5.0 ml of liquid agar at 45° C., 20 mg of solid test compound was added, to give a final concentration of 4 mg/ml. The agar was solidified in slants. The fungal cultures were then innoculated. […]

[14] = test system: Microsporum audouinni; test: Direct addition method, solid compound in Sabouraud dextrose agar; type: cell-based, Microsporum audouinii; set-up: key to Fungal growth: +++: Maximum Fungal Growth; ++: Moderate Fungal Growth; +: Minimum Fungal Growth; +/−: Very little Fungal Growth; −: No Fungal Growth; conditions: 4 mg/mL of agar; 12th day after inoculation
Procedure: as §2

Compound	Fungal growth ([1]; 125 μg/ml)	Fungal growth ([1]; 250 μg/ml)	Fungal growth ([1]; 500 μg/ml)	Fungal growth ([1]; 1000 μg/ml)	Fungal growth ([2]; 125 μg/ml)	Fungal growth ([2]; 250 μg/ml)	Fungal growth ([2]; 500 μg/ml)	Fungal growth ([2]; 1000 μg/ml)	Fungal growth ([3]; 125 μg/ml)	Fungal growth ([3]; 250 μg/ml)	Fungal growth ([3]; 500 μg/ml)	Fungal growth ([3]; 1000 μg/ml)	Fungal growth ([4]; 125 μg/ml)	Fungal growth ([4]; 250 μg/ml)	Fungal growth [9]	Fungal growth [10]	Fungal growth [11]	Fungal growth [12]	Pityrosporum ovale growth [13]	Fungal growth [14]	other results
C=C(C)C1CCC2(CO)CCC3(C)C(CCC4C5(C)CCC(OC(=O)C=CC(=O)O)C(C)(C)C5CCC43C)C12 (centres unmarked) [Betulin-3-maleate]	++	+	−	−	++	++	+	−	+++	++	++	−	+	+/−							Fungal growth ([4]; 500 μg/ml): +/−; Fungal growth ([4]; 1000 μg/ml): −; Fungal growth ([5]; 125 μg/ml): +++; Fungal growth ([5]; 250 μg/ml): +++; Fungal growth ([5]; 500 μg/ml): ++; Fungal growth ([5]; 1000 μg/ml): +/−; Fungal growth ([6]; 125 μg/ml): ++; Fungal growth ([6]; 250 μg/ml): ++; Fungal growth ([6]; 500 μg/ml): +; Fungal growth ([6]; 1000 μg/ml): −; Fungal growth ([7]; 125 μg/ml): +/−; Fungal growth ([7]; 250 μg/ml): +/−; Fungal growth ([7]; 500 μg/ml): −; Fungal growth ([7]; 1000 μg/ml): −; Fungal growth ([8]; 125 μg/ml): ++; Fungal growth ([8]; 250 μg/ml): +; Fungal growth ([8]; 500 μg/ml): +/−; Fungal growth ([8]; 1000 μg/ml): −
CC1(C)CCC23CCC4(C)C(CCC5C6(C)CCC(OC(=O)CN)C(C)(C)C6CCC54C)C2C1OC3 (centres unmarked) [Allobetulin-3-glycine]															+	−	−	++	+	+	
C=C(C)C1CCC2(C)CCC3(C)C(CCC4C5(C)CCC(OC(=O)CCC(=O)O)C(C)(C)C5CCC43C)C12 (centres unmarked) [Lupeol-3-succinate]															+	−	−	+	+	+	
COC1=CC(=O)C[C@@H](C)[C@]12Oc1c(Cl)c(OC)cc(OC)c1C2=O [Griseofulvin, reference compound]	++	+	−	−	+/−	+/−	−	−	+/−	+/−	−	−	+/−	+/−	−	−	−	−	+	−	Fungal growth ([4]; 500 μg/ml): −; Fungal growth ([4]; 1000 μg/ml): −; Fungal growth ([5]; 125 μg/ml): +++; Fungal growth ([5]; 250 μg/ml): +++; Fungal growth ([5]; 500 μg/ml): ++; Fungal growth ([5]; 1000 μg/ml): −; Fungal growth ([6]; 125 μg/ml): +/−; Fungal growth ([6]; 250 μg/ml): +/−; Fungal growth ([6]; 500 μg/ml): −; Fungal growth ([6]; 1000 μg/ml): −; Fungal growth ([7]; 125 μg/ml): −; Fungal growth ([7]; 250 μg/ml): −; Fungal growth ([7]; 500 μg/ml): −; Fungal growth ([7]; 1000 μg/ml): −; Fungal growth ([8]; 125 μg/ml): ++; Fungal growth ([8]; 250 μg/ml): +; Fungal growth ([8]; 500 μg/ml): −; Fungal growth ([8]; 1000 μg/ml): −
C=C(C)[C@@H]1CC[C@]2(COC(=O)COCC(=O)O)CC[C@]3(C)[C@H](CC[C@@H]4[C@@]5(C)CC[C@H](OC(=O)COCC(=O)O)C(C)(C)[C@@H]5CC[C@]43C)[C@@H]12 [Betulin-3,28-didiglycolate]	++	+	−	−	++	+	+	−	+++	+++	++	−	+++	+++							Fungal growth ([4]; 500 μg/ml): +; Fungal growth ([4]; 1000 μg/ml): −; Fungal growth ([5]; 125 μg/ml): +++; Fungal growth ([5]; 250 μg/ml): +++; Fungal growth ([5]; 500 μg/ml): ++; Fungal growth ([5]; 1000 μg/ml): +/−; Fungal growth ([6]; 125 μg/ml): ++; Fungal growth ([6]; 250 μg/ml): +; Fungal growth ([6]; 500 μg/ml): +; Fungal growth ([6]; 1000 μg/ml): −; Fungal growth ([7]; 125 μg/ml): ++; Fungal growth ([7]; 250 μg/ml): ++; Fungal growth ([7]; 500 μg/ml): −; Fungal growth ([7]; 1000 μg/ml): −; Fungal growth ([8]; 125 μg/ml): +; Fungal growth ([8]; 250 μg/ml): +; Fungal growth ([8]; 500 μg/ml): +/−; Fungal growth ([8]; 1000 μg/ml): −; best antifungal or anti-yeast activity by the agar dilution method ([8]; against Trichophyton mentagrophytes): against Trichophyton mentagrophytes
C=C(C)[C@@H]1CC[C@]2(COC(=O)CCCC(=O)O)CC[C@]3(C)[C@H](CC[C@@H]4[C@@]5(C)CC[C@H](OC(=O)CCCC(=O)O)C(C)(C)[C@@H]5CC[C@]43C)[C@@H]12 [Betulin-3,28-diglutarate]															+	−	−	+	+/−	+	Growth inhibition of Pityrosporum ovale by the direct addition method ([13]; 4 mg/ml): inhibited the growth
